Reference: ChEMBL document CHEMBL1201862, “PubChem BioAssay data set” (2004)
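How tested: cells in 96-well plates exposed to compound for 48 hours at five concentrations. Here, GI50 denotes the concentration required for 50% inhibition of growth.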 Calls of active or inactive are those of the source. No stated cut-off is given here; in the data, active = GI50 up to about 1.1 µM and inactive = higher. Where a SMILES comes first, the peptide text is derived from it. The star is where a group is joined. Cbz = O=C(OCc1ccccc1)*; Boc = CC(C)(C)OC(=O)*; tBu = CC(C)(C)*

Key:
Assay in all cases: inhibition of tumour cell growth, NCI panel, 48 h
[1] = test system: RXF 393
[2] = test system: NCI-H226
[3] = test system: RPMI-8226
[4] = test system: NCI/ADR-RES
[5] = test system: U-251
[6] = test system: HOP-62
[7] = test system: BT-549
[8] = test system: SNB-75
[9] = test system: A498
[10] = test system: ACHN
[11] = test system: UACC-62
[12] = test system: NCI-H23
[13] = test system: IGROV-1
[14] = test system: 786-0
[15] = test system: MOLT-4
[16] = test system: SK-MEL-2
[17] = test system: HT-29
[18] = test system: KM12
[19] = test system: NCI-H460
[20] = test system: SR

Measured: GI50

CN(C)/C=N/c1c2ccccc2nc2ccccc12
inactive: [1] 4.34 µM | [2] 1.75 µM | [3] 1.79 µM | [4] 10.6 µM | [5] 4.17 µM | [6] 8.22 µM | [7] 3.06 µM | [8] 3.74 µM | [9] 8 µM | [10] 5.02 µM | [11] 2.45 µM | [12] 3.31 µM | [13] 4.23 µM | [14] 5.14 µM | [15] 2.59 µM | [16] 2.69 µM | [17] 3.06 µM

CC(C)[C@H](C)/C=C/[C@@H](C)C1CC[C@H]2[C@@]34C=C[C@]5(C[C@@H](O)CC[C@]5(C)[C@H]3CC[C@]12C)OO4 (stereo partly drawn)
inactive: [1] 44.5 µM | [2] 22.2 µM | [18] 31 µM | [4] 19.1 µM | [5] 24.3 µM | [6] > 100 µM | [7] 26.9 µM | [8] 30.3 µM | [9] 25.8 µM | [10] 37.4 µM | [11] 17.1 µM | [19] 31.8 µM | [12] 27.3 µM | [13] 29 µM | [14] 20.4 µM | [15] 28.6 µM | [16] 26.7 µM | [17] 23.3 µM

CCOC(=O)C1=C(OS(=O)(=O)C(F)(F)F)CCCC1
inactive: [1] > 100 µM | [2] > 100 µM | [18] > 100 µM | [3] > 100 µM | [4] > 100 µM | [5] > 100 µM | [6] > 100 µM | [8] > 100 µM | [9] > 100 µM | [10] > 100 µM | [20] > 100 µM | [11] > 100 µM | [19] > 100 µM | [12] > 100 µM | [13] > 100 µM | [14] > 100 µM | [15] > 100 µM | [16] > 100 µM | [17] > 100 µM

NC(=O)C1Cc2cc3c(cc21)OCO3 (stereo not drawn)
inactive: [1] > 100 µM | [2] > 100 µM | [18] > 100 µM | [4] > 100 µM | [6] > 100 µM | [7] > 100 µM | [8] > 100 µM | [10] > 100 µM | [11] > 100 µM | [19] > 100 µM | [12] > 100 µM | [13] > 100 µM | [14] > 100 µM | [17] > 100 µM

C=CCOCn1cc(C)c(=O)[nH]c1=O
inactive: [2] > 100 µM | [18] > 100 µM | [3] > 100 µM | [6] > 100 µM | [7] > 100 µM | [8] > 100 µM | [9] > 100 µM | [10] > 100 µM | [20] > 100 µM | [11] > 100 µM | [19] > 100 µM | [12] > 100 µM | [13] > 100 µM | [14] > 100 µM | [15] > 100 µM | [17] > 100 µM

COc1ccc(NCn2nc(CCCCCCCCc3nn(CNc4ccc(OC)cc4)c(=S)o3)oc2=S)cc1
inactive: [1] > 100 µM | [2] > 100 µM | [18] > 100 µM | [3] > 100 µM | [4] > 100 µM | [5] > 100 µM | [6] > 100 µM | [7] > 100 µM | [8] > 100 µM | [9] > 100 µM | [10] > 100 µM | [11] > 100 µM | [19] > 100 µM | [12] > 100 µM | [14] > 100 µM | [15] > 100 µM | [16] > 100 µM | [17] > 100 µM

COc1ccc(CC2c3cc(OC)c(OC)cc3CC[N+]2(C)C)cc1OC (stereo not drawn)
inactive: [2] > 100 µM | [18] > 100 µM | [3] > 100 µM | [4] > 100 µM | [5] > 100 µM | [7] > 100 µM | [8] > 100 µM | [9] > 100 µM | [10] > 100 µM | [11] > 100 µM | [19] > 100 µM | [12] > 100 µM | [13] > 100 µM | [14] > 100 µM | [15] > 100 µM | [16] > 100 µM | [17] > 100 µM

CC(OC(C)(C)C)C(NC(=O)C(CCCCNC(=O)OC(C)(C)C)NC(=O)C(Cc1c[nH]c2ccccc12)NC(=O)C(Cc1ccccc1)NC(=O)OCc1ccccc1)C(=O)NC(Cc1ccccc1)C(=O)O (stereo not drawn) (Cbz-FWK(Boc)T(tBu)F-OH; configuration not given here)
inactive: [1] > 100 µM | [2] 37.3 µM | [18] 43.3 µM | [3] 43.5 µM | [4] > 100 µM | [5] 37.9 µM | [6] > 100 µM | [8] 15.7 µM | [9] > 100 µM | [10] 69.3 µM | [20] 44.4 µM | [11] 21 µM | [19] > 100 µM | [12] 61.7 µM | [13] 31 µM | [14] > 100 µM | [15] 28.1 µM | [16] 41.7 µM | [17] 33.5 µM
